Results on 32 compounds are retold here after ChEMBL document CHEMBL1697731, “Cheminformatics analysis of assertions mined from literature that describe drug-induced liver injury in different species” (Chem Res Toxicol, 2010).

Series [1] concerns Hepatotoxicity. Description: Literature-mined compound from Fourches et al multi-species drug-induced liver injury (DILI) dataset, effect in non-rodents.
In series [2] the test system is Hepatotoxicity. Description: Literature-mined compound from Fourches et al multi-species drug-induced liver injury (DILI) dataset, effect in humans. The settings on record: human.
Series [3] deals with Hepatotoxicity. Put plainly: Literature-mined compound from Fourches et al multi-species drug-induced liver injury (DILI) dataset, effect in rodents. The settings on record: rodentia.

In the case of `CC1=C(/C=C/C(C)=C/C=C/C(C)=C/C=C/C=C(C)/C=C/C=C(C)/C=C/C2=C(C)C(=O)[C@@H](O)CC2(C)C)C(C)(C)C[C@H](O)C1=O` [ASTAXANTHIN], the Hepatotoxicity entry in series [1] is recorded as “no drug-induced liver injury reported”; in series [2], “no drug-induced liver injury reported”; in series [3], “drug-induced liver injury reported”.
`C[N+](C)(C)CC(O)CC(=O)[O-]` (stereo unspecified) [CARNITINE]: the Hepatotoxicity result in series [1], in series [2] and in series [3] was “drug-induced liver injury reported” throughout.
With `CC(=O)Oc1ccccc1C(=O)O` [ASPIRIN], the Hepatotoxicity entry in series [1], in series [2] and in series [3] was “drug-induced liver injury reported” throughout.
With `OC[C@@H](O)[C@@H](O)[C@H](O)[C@@H](O)CO` [SORBITOL], the Hepatotoxicity result in series [1] is “no drug-induced liver injury reported”; in series [2], “drug-induced liver injury reported”; in series [3], “drug-induced liver injury reported”.
With `CC1=C2C[C@H]3[C@@H](CC=C4C[C@@H](O)CC[C@@]43C)[C@@H]2CC[C@]12O[C@@H]1C[C@H](C)CN[C@H]1[C@H]2C` [CYCLOPAMINE], the Hepatotoxicity entry in series [1] was “no drug-induced liver injury reported”; in series [2], “drug-induced liver injury reported”; in series [3] it was “no drug-induced liver injury reported”.
On to `O=C([O-])P(=O)([O-])[O-].[Na+].[Na+].[Na+]` [FOSCARNET SODIUM], for which the Hepatotoxicity entry was “no drug-induced liver injury reported” in series [1], “no drug-induced liver injury reported” in series [2] and “drug-induced liver injury reported” in series [3].
On to `CCN(CC)C(=O)/C(C#N)=C/c1cc(O)c(O)c([N+](=O)[O-])c1` [ENTACAPONE], for which the Hepatotoxicity entry was “no drug-induced liver injury reported” in series [1], “drug-induced liver injury reported” in series [2] and “drug-induced liver injury reported” in series [3].
As to `N=C(N)NN` [PIMAGEDINE], the Hepatotoxicity result was “no drug-induced liver injury reported” in series [1], “no drug-induced liver injury reported” in series [2] and “drug-induced liver injury reported” in series [3].
With `COc1cc(Cc2cnc(N)nc2N)cc(OC)c1OC` [TRIMETHOPRIM], the Hepatotoxicity entry in series [1] (Liver) is recorded as “no drug-induced liver injury reported”; in series [2] (Liver), “drug-induced liver injury reported”; in series [3] (Liver), “drug-induced liver injury reported”.
As for `CSC[C@H]1C(=O)SC[C@@H](NC(=O)c2nc3ccccc3cc2O)C(=O)NCC(=O)N(C)[C@H]2SSC[C@@H](C(=O)N1C)N(C)C(=O)CNC(=O)[C@H](NC(=O)c1nc3ccccc3cc1O)CSC(=O)[C@H](CSC)N(C)C2=O` [THIOCORALINE], the Hepatotoxicity result in series [1] is reported as “no drug-induced liver injury reported”; in series [2], “drug-induced liver injury reported”; in series [3] it was “no drug-induced liver injury reported”.
Take `C[C@H](Cn1cnc2c(N)ncnc21)OCP(=O)(O)O` [TENOFOVIR ANHYDROUS]: the results for the Hepatotoxicity result in series [1], in series [2] and in series [3] were “no drug-induced liver injury reported”, “drug-induced liver injury reported” and “no drug-induced liver injury reported”, respectively.
As to `Clc1ccc(C(c2ccccc2Cl)C(Cl)Cl)cc1` (stereo unspecified) [MITOTANE], the Hepatotoxicity entry is “drug-induced liver injury reported” in series [1], “drug-induced liver injury reported” in series [2] and “no drug-induced liver injury reported” in series [3].
Turning to `COc1ccc2cc1Oc1ccc(cc1)C[C@H]1c3cc(c(OC)cc3CCN1C)Oc1c(OC)c(OC)cc3c1[C@H](C2)N(C)CC3` [FANCHININ], the values for the Hepatotoxicity entry in series [1], in series [2] and in series [3] were “no drug-induced liver injury reported”, “drug-induced liver injury reported” and “drug-induced liver injury reported”, respectively.
For `COc1c(N2CCNC(C)C2)c(F)cc2c(=O)c(C(=O)O)cn(C3CC3)c12` (stereo unspecified) [GATIFLOXACIN], the Hepatotoxicity result in series [1] was “no drug-induced liver injury reported”; in series [2], “drug-induced liver injury reported”; in series [3], “no drug-induced liver injury reported”.
As for `CC(C)C[C@H]1C(=O)N2CCC[C@H]2[C@]2(O)O[C@](NC(=O)[C@@H]3C=C4c5cccc6[nH]c(Br)c(c56)C[C@H]4N(C)C3)(C(C)C)C(=O)N12` [BROMOCRIPTINE], the Hepatotoxicity result in series [1] is listed as “no drug-induced liver injury reported”; in series [2] it was “no drug-induced liver injury reported”; in series [3], “drug-induced liver injury reported”.
Take HEPARIN: the Hepatotoxicity entry in series [1], in series [2] and in series [3] was “drug-induced liver injury reported” in each case.
`FC(F)(F)C(Cl)Br` (stereo unspecified) [HALOTHANE]: the Hepatotoxicity result in series [1], in series [2] and in series [3] was “drug-induced liver injury reported” each time.
Turning to `CNNCc1ccc(C(=O)NC(C)C)cc1` [PROCARBAZINE], the Hepatotoxicity result is “no drug-induced liver injury reported” in series [1], “no drug-induced liver injury reported” in series [2] and “drug-induced liver injury reported” in series [3].
As to `N[C@@H](CCC(=O)O)C(=O)O` [GLUTAMIC ACID], the results for the Hepatotoxicity result in series [1], in series [2] and in series [3] were “no drug-induced liver injury reported”, “no drug-induced liver injury reported” and “drug-induced liver injury reported”, respectively.
With `c1ccc2[nH]c(-c3cscn3)nc2c1` [THIABENDAZOLE], the Hepatotoxicity result in series [1], in series [2] and in series [3] was “drug-induced liver injury reported” throughout.
Take `C[C@]12CC[C@H](O)CC1=CC[C@@H]1[C@@H]2CC[C@]2(C)C(=O)CC[C@@H]12` [PRASTERONE]: the Hepatotoxicity entry in series [1] is “no drug-induced liver injury reported”; in series [2], “drug-induced liver injury reported”; in series [3] it was “drug-induced liver injury reported”.
As for `CS(=O)(=O)O.C[C@H](N)C(=O)N[C@@H](C)C(=O)N[C@H]1[C@@H]2CN(c3nc4c(cc3F)c(=O)c(C(=O)O)cn4-c3ccc(F)cc3F)C[C@@H]21` [ALATROFLOXACIN MESYLATE], the results for the Hepatotoxicity result in series [1], in series [2] and in series [3] were “no drug-induced liver injury reported”, “drug-induced liver injury reported” and “no drug-induced liver injury reported”, respectively.
In the case of `Cc1cccc(CN2CCN(C(c3ccccc3)c3ccc(Cl)cc3)CC2)c1` (stereo unspecified) [MECLIZINE], the Hepatotoxicity result in series [1] was “no drug-induced liver injury reported”; in series [2], “no drug-induced liver injury reported”; in series [3], “drug-induced liver injury reported”.
As for `CN[C@@H](C)Cc1ccccc1` [METHAMPHETAMINE], the Hepatotoxicity entry in series [1] was “no drug-induced liver injury reported”; in series [2], “drug-induced liver injury reported”; in series [3] it was “drug-induced liver injury reported”.
For the compound `O=C1CCCC(=O)C1C(=O)c1ccc(C(F)(F)F)cc1[N+](=O)[O-]` [NITISINONE], the Hepatotoxicity entry in series [1] is on record as “drug-induced liver injury reported”; in series [2], “no drug-induced liver injury reported”; in series [3] it was “drug-induced liver injury reported”.
On to `CCCCC[C@H](O)/C=C/[C@@H]1[C@H]2C/C(=C/CCCC(=O)[O-])O[C@H]2C[C@H]1O.[Na+]` [EPOPROSTENOL SODIUM], for which the Hepatotoxicity entry in series [1] is on record as “no drug-induced liver injury reported”; in series [2], “no drug-induced liver injury reported”; in series [3] it was “drug-induced liver injury reported”.
As to `CCN1CCN(C(=O)N[C@@H](C(=O)N[C@@H]2C(=O)N3C(C(=O)O)=C(CSc4nnnn4C)CS[C@H]23)c2ccc(O)cc2)C(=O)C1=O` [CEFOPERAZONE], the Hepatotoxicity entry in series [1] is listed as “no drug-induced liver injury reported”; in series [2], “drug-induced liver injury reported”; in series [3], “drug-induced liver injury reported”.
`C=CCC1(CC(C)C)C(=O)NC(=O)NC1=O` [BUTALBITAL]: the results for the Hepatotoxicity entry in series [1], in series [2] and in series [3] were “no drug-induced liver injury reported”, “drug-induced liver injury reported” and “no drug-induced liver injury reported”, respectively.
As for LECITHIN, the Hepatotoxicity result is listed as “no drug-induced liver injury reported” in series [1], “drug-induced liver injury reported” in series [2] and “drug-induced liver injury reported” in series [3].
With `CC(=O)Nc1c(I)cc(I)c(C(=O)[O-])c1I.O.[Na+]` [ACETRIZOATE SODIUM], the Hepatotoxicity entry in series [1] was “no drug-induced liver injury reported”; in series [2], “no drug-induced liver injury reported”; in series [3] it was “drug-induced liver injury reported”.
As to `OC[C@H]1O[C@@H](n2cnc3c(O)ncnc32)[C@H](O)[C@@H]1O` [INOSINE], the values for the Hepatotoxicity entry in series [1], in series [2] and in series [3] were “no drug-induced liver injury reported”, “no drug-induced liver injury reported” and “drug-induced liver injury reported”, respectively.
Regarding `CC(=O)O[C@]1(C(C)=O)CC[C@H]2[C@@H]3C=C(C)C4=CC(=O)CC[C@]4(C)[C@H]3CC[C@@]21C` [MEGESTROL ACETATE], the Hepatotoxicity entry is listed as “no drug-induced liver injury reported” in series [1], “drug-induced liver injury reported” in series [2] and “drug-induced liver injury reported” in series [3].
